PubChem BioAssay (NCI)
“And” between values parts separate entries of the source, which are not always exact repeats. Equal entries are not always repeated.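 How tested: cells in 96-well plates exposed to compound for 48 hours at five concentrations. Here, GI50 denotes the concentration required for 50% inhibition of growth. TGI: concentration producing complete growth inhibition.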

Assays:
Test in all cases: NCI tumour cell line growth inhibition, 48 h
KM20L2 colon = tested on: KM20L2 colon
LXFL 529 NSCLC = tested on: LXFL 529 NSCLC
SNB-78 CNS = tested on: SNB-78 CNS
RXF-631 renal = tested on: RXF-631 renal
M19-MEL melanoma = tested on: M19-MEL melanoma
XF 498 CNS = tested on: XF 498 CNS
DMS 273 small cell lung = tested on: DMS 273 small cell lung
MDA-N = tested on: MDA-N
HOP-18 NSCLC = tested on: HOP-18 NSCLC
P388/ADR leukemia = tested on: P388/ADR leukemia
P388 leukemia = tested on: P388 leukemia

Structure (SMILES)	TGI (KM20L2 colon) [µM]	TGI (LXFL 529 NSCLC) [µM]	TGI (SNB-78 CNS) [µM]	TGI (RXF-631 renal) [µM]	TGI (M19-MEL melanoma)	TGI (XF 498 CNS) [µM]	TGI (DMS 273 small cell lung)	TGI (MDA-N)	TGI (HOP-18 NSCLC)	other results
CC(C)(C)CC(C)(C)c1cc2c(O)c(c1)Cc1cc(C(C)(C)CC(C)(C)C)cc(c1O)Cc1cc(C(C)(C)CC(C)(C)C)cc(c1O)Cc1cc(C(C)(C)CC(C)(C)C)cc(c1O)Cc1cc(C(C)(C)CC(C)(C)C)cc(c1O)Cc1cc(C(C)(C)CC(C)(C)C)cc(c1O)C2	> 100	> 100	> 100	> 100	> 100 µM	> 100	> 100 µM	–	–	–
OCC1OC(OCC(O)C(O)C(O)C(/C=N/Nc2ccccc2)=N/Nc2ccccc2)C(O)C(O)C1O (stereo unspecified)	–	–	–	–	–	–	–	> 100 µM	–	–
CN(N=O)C(=O)N[C@@H](C=O)[C@@H](O)[C@H](O)[C@H](O)CO	> 750	> 750	608	–	629 µM and > 750 µM	> 750	575 µM and > 750 µM	> 750 µM	216 µM and > 750 µM	GI50 (HOP-18 NSCLC): > 750 µM; TGI (P388/ADR leukemia): 635 µM; TGI (P388 leukemia): > 504 µM; GI50 (M19-MEL melanoma): 619 µM; GI50 (XF 498 CNS): > 750 µM; GI50 (DMS 273 small cell lung): > 750 µM
NNC(=S)N/N=C(/C(=O)Nc1cc(Cl)ccc1Cl)C1C(=O)Nc2ccccc2S1=O (stereo unspecified)	> 100	> 100	> 100	–	> 100 µM	> 100	–	–	> 100 µM	–
COc1c(NC(C)=O)cc(C)cc1NC(C)=O	–	–	> 100	–	> 100 µM	> 100	> 100 µM	–	–	–
CCOC(=O)C1=C(O)CSC1=Nc1ccccc1	> 100	> 100	> 100	> 100	> 100 µM	–	> 100 µM	–	–	–
O=C1C2=Nc3ccccc3C(O)N2c2ccccc21 (stereo unspecified)	–	–	–	–	–	–	–	3.5 µM	–	–
O=C1c2ccccc2C(=O)c2c(NCCNCCO)ccc(O)c21	12.3	15.5	20.2	–	12.4 µM	18.8	10.7 µM	–	21.4 µM	–
Cc1c(C(=O)C/C(=N/NC(=O)C[n+]2ccccc2)C(=O)Nc2ccccc2)[n+](=O)c2ccccc2n1O	> 100	> 100	> 100	> 100	> 100 µM	> 100	> 100 µM	–	> 100 µM	–
Cn1nnnc1N/N=C/c1ccccc1	–	–	–	–	–	–	–	> 10 µM	–	–
O=C(c1cc2ccccc2o1)N(Cc1ccccc1)c1ccccc1	35.9	> 100	> 100	> 100	51.4 µM	41.8	> 100 µM	–	65.9 µM	–
CN(C)CCOc1ccc(/C(=C(/CCCl)c2ccccc2)c2ccccc2)cc1	–	–	–	–	–	–	–	30.2 µM	–	–
C[C@]12CCc3nonc3C1CC[C@@H]1C2CC[C@]2(C)NC(=O)CCC12 (stereo partly specified)	> 100	> 100	> 100	> 100	> 100 µM	> 100	> 100 µM	–	> 100 µM	–
O=C1N(c2ccccc2)C(=O)C2(SC=NN2Cc2ccccc2)N1c1ccccc1 (stereo unspecified)	> 100	> 100	> 100	–	> 100 µM	> 100	–	–	> 100 µM	–
O=P(NC12CC3CC(CC(C3)C1)C2)(N1CC1)N1CC1	> 100	> 100	> 100	–	> 100 µM	–	> 100 µM	> 100 µM	> 100 µM	–
CN(C)c1ccc(/C=C2\N=C(c3ccc([N+](=O)[O-])cc3)OC2=O)cc1	–	–	–	–	–	–	–	> 100 µM	–	–
COc1ccc2c(c1)C(=O)C(=O)c1cc(O)c(OC)c(OC)c1-2	–	–	–	–	–	–	–	1.4 µM and 2.55 µM	–	GI50 (MDA-N): 1.28 µM
COc1ccc(C(=O)C(C(=O)C(=O)Nc2ccc(Cl)c(Cl)c2)c2ccc(OC)cc2)cc1 (stereo unspecified)	> 100	> 100	> 100	–	> 100 µM	> 100	> 100 µM	–	> 100 µM	–
CC1(C)CCc2cc3c(cc2O1)OCC1c2cc4c(cc2OC31)OCO4 (stereo unspecified)	> 100	> 100	–	> 100	> 100 µM	> 100	–	–	> 100 µM	–
